Like-named read-outs stand apart in the source and are kept apart here.
Experiments:
[1] = system: NCI-60 cancer cell lines; test: NCI-60 cancer cell line drug screen (GI50, MGM); type: cell-based, human; details: Homo sapiens; for GI50: read-out: Antiproliferative Activities [GI50 (μM)]
Method: Cancer cells were incubated with the test compounds at five concentrations ranging from 100 μM to 10 nM for 48 h. […] The approximate average of GI50 values across the entire panel of NCI-60 cancer cell lines for each compound was recorded as the MGM value.

[2] = molecular target: T1, human topoisomerase I (Homo sapiens, UniProt P11387); details: relative topoisomerase I inhibition levels, previously determined, six levels (0 - 5, +++++ = 5); cited from earlier work
T1 sequence (P11387 1-765): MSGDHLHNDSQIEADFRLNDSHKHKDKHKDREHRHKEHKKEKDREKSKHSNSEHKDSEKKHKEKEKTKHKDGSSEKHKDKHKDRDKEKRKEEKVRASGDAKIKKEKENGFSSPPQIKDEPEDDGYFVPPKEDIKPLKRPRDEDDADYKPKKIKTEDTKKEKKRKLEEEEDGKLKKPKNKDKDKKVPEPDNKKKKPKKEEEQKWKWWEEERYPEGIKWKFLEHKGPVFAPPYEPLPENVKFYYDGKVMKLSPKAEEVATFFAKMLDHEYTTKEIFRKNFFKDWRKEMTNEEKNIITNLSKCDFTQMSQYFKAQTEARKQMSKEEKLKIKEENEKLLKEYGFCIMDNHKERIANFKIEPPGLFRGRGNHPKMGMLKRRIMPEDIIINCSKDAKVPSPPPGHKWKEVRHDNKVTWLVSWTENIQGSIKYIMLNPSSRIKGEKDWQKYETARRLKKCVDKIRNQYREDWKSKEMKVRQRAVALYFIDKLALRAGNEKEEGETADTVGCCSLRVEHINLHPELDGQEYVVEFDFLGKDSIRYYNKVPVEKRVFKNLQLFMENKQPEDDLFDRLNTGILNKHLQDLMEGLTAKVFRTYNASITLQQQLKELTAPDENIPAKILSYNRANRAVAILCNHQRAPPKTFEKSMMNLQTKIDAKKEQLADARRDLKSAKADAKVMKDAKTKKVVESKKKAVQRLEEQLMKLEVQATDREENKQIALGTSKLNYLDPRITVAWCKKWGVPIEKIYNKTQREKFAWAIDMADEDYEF

COc1cc2c(cc1O)-c1c(c3ccc([N+](=O)[O-])cc3c(=O)n1CCCN1CCOCC1)C2=O [Compound 36]
GI50 ([1]; 786-0, Renal Cancer, 786-0): 0.21 µM | GI50 ([1]; A498, Renal Cancer, A498): 0.07 µM | GI50 ([1]; A549, Non-Small Cell Lung Cancer, A549/ATCC): 0.52 µM | GI50 ([1]; ACHN, Renal Cancer, ACHN): 0.05 µM | GI50 ([1]; BT-549, Breast Cancer, BT-549): 0.12 µM | GI50 ([1]; CAKI-1, Renal Cancer, CAKI-1): 0.12 µM | GI50 ([1]; CCRF-CEM, Leukemia, CCRF-CEM): 0.05 µM | GI50 ([1]; COLO 205, Colon Cancer, COLO 205): 7.76 µM | GI50 ([1]; DU-145, Prostate Cancer, DU-145): 0.14 µM | GI50 ([1]; HCC 2998, Colon Cancer, HCC-2998): 1.42 µM | GI50 ([1]; HCT-15, Colon Cancer, HCT-15): 1.53 µM | GI50 ([1]; HCT-116, Colon Cancer, HCT-116): 0.22 µM | GI50 ([1]; HL-60, Leukemia, HL-60(TB)): 0.08 µM | GI50 ([1]; HOP-62, Non-Small Cell Lung Cancer, HOP-62): 0.12 µM | GI50 ([1]; HOP-92, Non-Small Cell Lung Cancer, HOP-92): 0.28 µM | GI50 ([1]; HT-29, Colon Cancer, HT29): 1.18 µM | GI50 ([1]; Hs-578T, Breast Cancer, HS 578T): 1.97 µM | GI50 ([1]; IGROV-1, Ovarian Cancer, IGROV1): 1.52 µM | GI50 ([1]; K562, Leukemia, K-562): 0.09 µM | GI50 ([1]; KM12, Colon Cancer, KM12): 1.04 µM | GI50 ([1]; LOX IMVI, Melanoma, LOX IMVI): 0.09 µM | GI50 ([1]; Leukemia, SR): 0.03 µM | GI50 ([1]; MCF7, Breast Cancer, MCF7): 0.05 µM | GI50 ([1]; MDA-MB-231, Breast Cancer, MDA-MB-231/ATCC): 2.06 µM | GI50 ([1]; MDA-MB-435, Melanoma, MDA-MB-435): 0.89 µM | GI50 ([1]; MDA-MB-468, Breast Cancer, MDA-MB-468): 0.14 µM | GI50 ([1]; MOLT-4, Leukemia, MOLT-4): 0.03 µM | GI50 ([1]; Malme-3M, Melanoma, MALME-3M): 1.16 µM | GI50 ([1]; Melanoma, M14): 0.08 µM | GI50 ([1]; NCI-H23, Non-Small Cell Lung Cancer, NCI-H23): 0.17 µM | GI50 ([1]; NCI-H226, Non-Small Cell Lung Cancer, NCI-H226): 0.45 µM | GI50 ([1]; NCI-H322M, Non-Small Cell Lung Cancer, NCI-H322M): 0.66 µM | GI50 ([1]; NCI-H460, Non-Small Cell Lung Cancer, NCI-H460): 0.03 µM | GI50 ([1]; NCI-H522, Non-Small Cell Lung Cancer, NCI-H522): 0.05 µM | GI50 ([1]; OVCAR-3, Ovarian Cancer, OVCAR-3): 0.57 µM | GI50 ([1]; OVCAR-4, Ovarian Cancer, OVCAR-4): 1.29 µM | GI50 ([1]; OVCAR-5, Ovarian Cancer, OVCAR-5): 3.6 µM | GI50 ([1]; OVCAR-8, Ovarian Cancer, OVCAR-8): 0.45 µM | GI50 ([1]; Ovarian Cancer, NCl/ADR-RES): 0.28 µM | GI50 ([1]; Prostate Cancer, PC-3): 0.67 µM | GI50 ([1]; RPMI-8226, Leukemia, RPMI-8226): 0.12 µM | GI50 ([1]; RXF 393, Renal Cancer, RXF 393): 0.46 µM | GI50 ([1]; Renal Cancer, U0-31): 0.07 µM | GI50 ([1]; SF-268, CNS Cancer, SF-268): 0.04 µM | GI50 ([1]; SF-295, CNS Cancer, SF-295): 0.18 µM | GI50 ([1]; SF-539, CNS Cancer, SF-539): 0.27 µM | GI50 ([1]; SK-MEL-2, Melanoma, SK-MEL-2): 9.44 µM | GI50 ([1]; SK-MEL-5, Melanoma, SK-MEL-5): 0.22 µM | GI50 ([1]; SK-MEL-28, Melanoma, SK-MEL-28): 1.37 µM | GI50 ([1]; SK-OV-3, Ovarian Cancer, SK-OV-3): 0.24 µM | GI50 ([1]; SN12C, Renal Cancer, SN12C): 0.2 µM | GI50 ([1]; SNB-19, CNS Cancer, SNB-19): 0.39 µM | GI50 ([1]; SNB-75, CNS Cancer, SNB-75): 0.21 µM | GI50 ([1]; SW-620, Colon Cancer, SW-620): 0.08 µM | GI50 ([1]; T47D, Breast Cancer, T-47D): 0.56 µM | GI50 ([1]; TK-10, Renal Cancer, TK-10): 2.12 µM | GI50 ([1]; U-251, CNS Cancer, U251): 0.12 µM | GI50 ([1]; UACC-62, Melanoma, UACC-62): 0.05 µM | GI50 ([1]; UACC-257, Melanoma, UACC-257): 0.48 µM | mean GI50 across NCI-60 panel (MGM) ([1]; average of GI50 values across the entire panel of NCI-60 cancer cell lines): 280 nM | Top1 Inhibiton [2]: ++ (medium inhibition, ++, MYC expression inhibited at 2.0 μM, or no clear dose-dependent MYC inhibition)

— patent publication US20210382058A1, “PATIENT SELECTION FOR TREATMENT OF MYC POSITIVE CANCERS WITH INDENOISOQUINOLINES” (Purdue Research Foundation, priority 2020, published 2021)
